US11806343B2, “Inhibitors of DUX4 induction for regulation of muscle function” (Sonic Master Limited, priority 2017, dated 2023)
pIC50: −log10 of the molar value. Values joined by “and” are separate entries in the source; they are usually repeats but may differ in a detail not shown here. Equal values may be shown once. Read-outs that look alike come from different tables or passages of the source.

Experiments:
DUX4 [1] = experiment: FSHD primary patient biopsy myotube immunocytochemistry, DUX4 expression; assay type: cell-based, human
Experimental: FIG. 10 provides the workflow for assays performed with patient biopsy-derived muscle. On Day 0, patient myoblasts are passaged in a 96-well dish in primary myoblast medium (Genea BioCells). On Day 2, the medium is changed to […].
17MB026 primary FSHD-affected patient myoblasts (obtained from the University of Rochester FSHD Biorepository) were thawed and cultured as described in Rickard et al., 2015 in primary myoblast medium. Cells (6000 per well) were seeded to a collagen-I coated 96-well plate in 100 μl primary myoblast medium. Medium was changed every other day until cells reached 80% confluence followed by a switch to 100 μL per well primary myotube medium. […] Cells were fixed and analyzed after 2.5 days of myotube formation by immunocytochemistry and high-content imaging for DUX4, H3.X/Y, Myosin Heavy Chain expression and nuclei number. Five or six replicate wells were averaged per condition, […]

DUX4 [2] = experiment: DUX4 expression downregulation by kinase family inhibitors (Table 1); assay type: cell-based; details: at the lowest significant concentration; listed as DCC2036
[3] = Acute pharmacokinetic study, plasma; assay type: in vivo, CD-1 mice; details: mouse plasma; for AUClast: 0 to 24 hours
Experimental: (§1) Intraperitoneal injection, which provides the drug via absorption into the mesenteric blood supply and is thus subject to hepatic first-pass metabolism, was used to approximate oral dosings total of 96 mice were utilized: 3 naive CD-1 male mice and 3 naïve CD-1 female mice were dosed per route of administration per 2 doses plus 3 naive CD-1 male mice and 3 naïve CD-1 female mice were per route of administration per dose for tissue collection. Following administration, blood, brain, and muscle samples were collected as follows; Two blood samples were collected from each mouse at 2 distinct timepoints over 24 bout post-dose to include 0.25, 0.5, 1, 2, 4, 8, and 24 hours. Blood samples were centrifuged to obtain plasma samples. For each time point, duplicate aliquots of plasma were transferred into an appropriately labeled sample tube containing a volume of buffer. The diluted plasma samples were stored at −20° C. for the first 24 hours and then transferred to −80° C. 24 hours of processing. Terminal brain and muscle samples were collected at 1 hour and 24 hours after administration. Tissue samples were temporarily put on dry ice and then stored at −20° C. for the first 24 hours and then transferred to −80° C. 24 hours of collection Plasma, brain and muscle samples were analyzed for test substance quantification using a method based on protein precipitation followed by HPLC-MS/MS analysis within optimized bioanalytical method.

[4] = Tissue distribution study, brain and muscle; assay type: in vivo, CD-1 mice; details: mouse; for Uninjected muscle exposure / brain exposure: samples at 1 hour and 24 hours
Experimental: as §1
FIG. 31B. […] For IM injected animals, both the injected gastrocnemius muscle and the contralateral (uninjected gastrocnemius)) muscle were collected. […] Concentrations are shown as mean with SD, N=6

[5] = IM, 10 mg/kg single dose, N = 6
[6] = IM, 50 mg/kg single dose, N = 6
[7] = IP, 10 mg/kg single dose, N = 6
[8] = IP, 50 mg/kg single dose, N = 6

Which “DUX4 expression, dose curve” value (DUX4 [1]; 17MB026 primary myotubes, 10-point dose curve 2 nM-5 μM, 2.5 days) does the source give for `CNC(=O)c1cc(Oc2ccc(NC(=O)Nc3cc(C(C)(C)C)nn3-c3ccc4ncccc4c3)c(F)c2)ccn1` [GBC0905, Rebastinib] here?
The value was “dose-dependent decrease of DUX4 expression”.

What about the pIC50 (DUX4 [1]; Homo sapiens, Myotube, 17MB026 primary FSHD patient myotubes, read-out: IC50 value, DUX4-suppressive effect) of the same compound?
The pIC50 was roughly 7.00.

What about the “Quantitation % of DUX4 reduction @the lowest significant [C]” value (DUX4 [2]) of the same compound?
The value was 66.39% and 51.75% and 79.76% and 82.94%.

And the tmax ([3]; both sexes, CD-1, im, intramuscular injection, 10 or 50 mg/kg, read-out: median time to maximum concentration (Tmax))?
The tmax was 2 to 4 h.

And the AUClast [3, 5]?
The AUClast was 93.54 µg·h/mL.

What about the “AUC∞” value [3, 5] of the same compound?
Its value is 98.469 µg·h/mL.

And the Cmax [3, 5]?
Its Cmax is 8203 ng/mL.

And the “MRT∞” value [3, 5]?
Its value is 7.83 h.

What about the t1/2 [3, 5] of the same compound?
Its t1/2 is 5.59 h.

What about the tmax [3, 5] of the same compound?
Its tmax is 2 h.

And the AUClast [3, 6]?
Its AUClast is 222.518 µg·h/mL.

What about the “AUC∞” value [3, 6] of the same compound?
The value was 256.486 µg·h/mL.

And the Cmax [3, 6]?
Its Cmax is 15103 ng/mL.

And the “MRT∞” value [3, 6]?
The value was 11.8 h.

What about the t1/2 [3, 6] of the same compound?
Its t1/2 is 8.10 h.

And the tmax [3, 6]?
The tmax was 4 h.

And the AUClast [3, 7]?
The AUClast was 162.488 µg·h/mL.

And the “AUC∞” value [3, 7]?
The value was 162.568 µg·h/mL.

What about the Cmax [3, 7] of the same compound?
The Cmax was 23683 ng/mL.

And the “MRT∞” value [3, 7]?
The value was 4.46 h.

What about the t1/2 [3, 7] of the same compound?
Its t1/2 is 2.12 h.

What about the tmax [3, 7] of the same compound?
The tmax was 2 h.

What about the AUClast [3, 8] of the same compound?
Its AUClast is 651.387 µg·h/mL.

What about the “AUC∞” value [3, 8] of the same compound?
The value was 651.534 µg·h/mL.

And the Cmax [3, 8]?
Its Cmax is 81633 ng/mL.

What about the “MRT∞” value [3, 8] of the same compound?
Its value is 4.73 h.

And the t1/2 [3, 8]?
The t1/2 was 1.90 h.

What about the tmax [3, 8] of the same compound?
The tmax was 2 h.

And the “median time to maximum concentration (Tmax)” value ([3]; intraperitoneal injection, 10 or 50 mg/kg)?
The value was 2 h.

What about the Brain concentration ([4]; 24 hours after IM injection at 10 mg/kg) of the same compound?
Its Brain concentration is “below the Lower Limit of Quantification (LLOQ)”.

And the Uninjected muscle exposure ([4]; intramuscular administration)?
The Uninjected muscle exposure was no more than 157 ng/g.

And the brain exposure ([4]; intramuscular administration)?
Its brain exposure is no more than 351 ng/g.

And the “Exposure of the injected muscle (gastrocnemius)” value ([4]; intramuscular dosing, after 24 hours)?
The value was 1441667 ng/g.

What about the Uninjected muscle exposure ([4]; intraperitoneal administration) of the same compound?
The Uninjected muscle exposure was “up to 1336 ng/g”.

What about the brain exposure ([4]; intraperitoneal administration) of the same compound?
The brain exposure was “up to 441 ng/g”.
